Assay results from US20080176810A1, “Use of 3, 4', 5-Trihydroxy-Stilbene-3-Beta-D-glucoside in Prepartion of Medicines For Treating and/or Preventing Ischemic Heart Disease” (SHENZHEN NEPTUNUS PHARMACEUTICAL CO., LTD., priority 2004, published 2008).
Like-named read-outs stand apart in the source and are kept apart here.

Key:
[1] = tested on: myocardial infarction induced by ligation of coronary artery; assay: Canine model of myocardial infarction induced by ligation of coronary artery, iv; format: in vivo, dogs; settings: for sum of ST (ΣST) segment elevation, x ± s: 0 min before, c3-c8 5,15,30,60,90,120 min after administration; for IZ/LV / IZ/WT: N-BT staining; for CK after administration / CK before administration / LDH after administration / LDH before administration: serum
Experimental: Drugs were medicated with intravenous injection. The volume of the drug administered was the same as that of normal saline for the animal model group of ischemic reperfusion with administrative volume of 2 ml/kg.
After weighing, the animals were anesthetised with pentobarbital sodium iv at the dose of 30 mg/kg. Tracheal intubation was performed and SC-M5 anesthesia respirator (manufactured by Shanghai Medical Instrument Factory) was connected for mechanical ventilation (16˜18 per min with tidal volume of 350˜550 ml) after thoracotomy at the fourth intercostal space of left sternal border. With exposure of the heart, the pericardium was cut open to make pericardium hammock. The coronary artery was dissociated from between the first and second branches of left anterior descending coronary artery, underneath which passed through silk threads for two-step ligation. On surface of heart were placed 30-point epicardial leads, to which four limbs were connected through needle-electrodes, which in turn were connected to Powerlab/8s (AD Instruments) with a multichannel switcher. Harris Two-step Ligation was performed. Two minutes before first ligation, 5 mg/kg lidocaine was given by femoral intravenous injection to prevent arrhythmia. While performing ligation, a steel wire of 1 mm in diameter was inserted into the first knot so as to be ligated together with the coronary artery. Afterward, the steel-wire was pulled out and then 30 min later, the second knot was made to complete the ligation.
The epicardial electrogram 10 min after completing the ligation was recorded as the control value before drug administration. Later, test drug was given by femoral intravenous injection while the negative control group was given solvent of same volume. Constant dripping was completed within 30 min for all groups with a constant flow pump (SH-88AB Controllable Intravenous Injector made by Quanzhou Lizhong Electronic Medical Instrument Factory). After completion of the constant dripping, changes of epcardial electrogram at 5, 15, 30, 60, 90 and 120 min after administration were recorded respectively. The number of ST segment elevation or depression to more than 2 mV and sum of total value ST segment elevation (ΣST) were applied as the indexes for observation of changes of epcardial electrogram and to calculate the percentage of the weight of infarct area to the weight of whole heart or to the weight of left ventricle. 3 ml of blood from right ventricle was sampled before ligation and 2 hrs after administration. After centrifuged at 3000 rpm for 15 min, serum was taken to detect lactate dehydrogenase (LDH) and serum creatine kinase (CK). Method according to instruction of the LDH and CK Assay kit (batch no: 20020523, Nanjing Jiancheng Bioengineering Institute) (ENR: U90625, Randox Company, UK) was adopted for detection. The performance was with a ultraviolet/visible range spectrophotometer of UV751GD type (Shanghai analytical apparatus Factory).

[2] = tested on: acute myocardial infarction; assay: Acute myocardial infarction in anesthetized dogs, oral (intragastric) administration; format: in vivo; settings: for weight of infarct myocardium: N-BT staining; for Weight of IM/Weight of LH: in % (unit assumed); for LDH: serum, 180 min; for ΔST: surface ECG, by row: r6 before, r7-r12 5,15,30,60,90,120 min after administration
Experimental: Drugs were administered intragastrically in equal volume at unequal concentration. […] After weighing, animals were anesthetized with 3% pentobarbital sodium iv at the dose of 30 mg/kg. Tracheal intubation was performed and anesthesia respirator (SC-M5, manufactured by Shanghai Medical Instrument Factory) was connected for mechanical ventilation (18 20 per min with tidal volume of 350 550 ml) after thoracotomy. Needle electrodes were punctured into four limbs and under chest skin for monitoring standard limb lead and V3 and ECG. Thoracotomy was performed at the third intercostal space of left sternal border and the fourth rib was removed for full exposure of heart. The pericardium was cut open to make a pericardium hammock. The coronary artery was dissociated from between the second and third branches of left anterior descending coronary artery, underneath which pass through silk threads for two-step ligation. On surface of heart were placed 30-point epicardial leads, to which four limbs were connected through needle-electrodes, which were in turn connected to Powerlab/8s (AD Instruments) with a multichannel switcher to record epicardial electrogram. Animal models of acute myocardial ischemia were prepared with the method of two-step ligation. […] NBT). While other part of myocardium was dyed to blue-black, the Infarct myocardium would not be colorated, which was then cut off and weighted. The results of experiment were shown in x±s and statistics were checked with t-test of non-matched pair. When p<0.05, it was judged that the differences were statistically significant.

[3] = tested on: isolated carotid and pulmonary arteries; settings: cited from earlier work
vascular smooth muscle = settings: 0.02 mM~2 mM; cited from earlier work

3,4′,5-trihydroxy-stilbene-3-β-D-glucoside [TSG]
CK B/A ([1]; TSG 2.5 mg/kg): 2.54 ± 0.27
LDH B/A ([1]; TSG 2.5 mg/kg): 2.28 ± 0.21
sum of ST (ΣST) segment elevation, x ± s ([1]; TSG 2.5 mg/kg iv, 0 min before administration): 154.5 ± 60.4 mV
sum of ST (ΣST) segment elevation, x ± s ([1]; TSG 2.5 mg/kg iv, 5 min after administration): 154.7 ± 55.0 mV
sum of ST (ΣST) segment elevation, x ± s ([1]; TSG 2.5 mg/kg iv, 30 min after administration): 129.2 ± 57.7 mV
sum of ST (ΣST) segment elevation, x ± s ([1]; TSG 2.5 mg/kg iv, 60 min after administration): 122.7 ± 59.6 mV
sum of ST (ΣST) segment elevation, x ± s ([1]; TSG 2.5 mg/kg iv, 90 min after administration): 128.3 ± 55.1 mV
IZ/LV ([1]; TSG 2.5 mg/kg): 21.68 ± 1.88 %
IZ/WT ([1]; TSG 2.5 mg/kg): 11.70 ± 0.93 %
CK after administration ([1]; TSG 2.5 mg/kg): 446.6 ± 39.4 IU/L
CK before administration ([1]; TSG 2.5 mg/kg): 176.7 ± 18.8 IU/L
LDH after administration ([1]; TSG 2.5 mg/kg): 823.3 ± 186.3 IU/L
LDH before administration ([1]; TSG 2.5 mg/kg): 359.7 ± 70.5 IU/L
CK B/A ([1]; TSG 5.0 mg/kg): 1.98 ± 0.38
LDH B/A ([1]; TSG 5.0 mg/kg): 2.09 ± 0.16
sum of ST (ΣST) segment elevation, x ± s ([1]; TSG 5.0 mg/kg iv, 0 min before administration): 153.8 ± 50.7 mV
sum of ST (ΣST) segment elevation, x ± s ([1]; TSG 5.0 mg/kg iv, 5 min after administration): 148.0 ± 39.9 mV
sum of ST (ΣST) segment elevation, x ± s ([1]; TSG 5.0 mg/kg iv, 30 min after administration): 116.2 ± 53.7 mV
sum of ST (ΣST) segment elevation, x ± s ([1]; TSG 5.0 mg/kg iv, 60 min after administration): 105.3 ± 53.6 mV
sum of ST (ΣST) segment elevation, x ± s ([1]; TSG 5.0 mg/kg iv, 90 min after administration): 103.8 ± 54.1 mV
IZ/LV ([1]; TSG 5.0 mg/kg): 15.25 ± 1.41 %
IZ/WT ([1]; TSG 5.0 mg/kg): 9.03 ± 1.16 %
CK after administration ([1]; TSG 5.0 mg/kg): 356.2 ± 64.8 IU/L
CK before administration ([1]; TSG 5.0 mg/kg): 180.8 ± 13.2 IU/L
LDH after administration ([1]; TSG 5.0 mg/kg): 587.1 ± 170.6 IU/L
LDH before administration ([1]; TSG 5.0 mg/kg): 281.2 ± 80.9 IU/L
CK B/A ([1]; TSG 10 mg/kg): 1.74 ± 0.37
LDH B/A ([1]; TSG 10 mg/kg): 1.99 ± 0.14
sum of ST (ΣST) segment elevation, x ± s ([1]; TSG 10 mg/kg iv, 0 min before administration): 155.0 ± 46.4 mV
sum of ST (ΣST) segment elevation, x ± s ([1]; TSG 10 mg/kg iv, 5 min after administration): 151.7 ± 35.6 mV
sum of ST (ΣST) segment elevation, x ± s ([1]; TSG 10 mg/kg iv, 30 min after administration): 115.2 ± 50.9 mV
sum of ST (ΣST) segment elevation, x ± s ([1]; TSG 10 mg/kg iv, 60 min after administration): 104.7 ± 45.5 mV
sum of ST (ΣST) segment elevation, x ± s ([1]; TSG 10 mg/kg iv, 90 min after administration): 102.0 ± 51.8 mV
IZ/LV ([1]; TSG 10 mg/kg): 13.92 ± 1.32 %
IZ/WT ([1]; TSG 10 mg/kg): 8.65 ± 1.11 %
CK after administration ([1]; TSG 10 mg/kg): 299.5 ± 63.9 IU/L
CK before administration ([1]; TSG 10 mg/kg): 172.7 ± 11.1 IU/L
LDH after administration ([1]; TSG 10 mg/kg): 551.6 ± 131.3 IU/L
LDH before administration ([1]; TSG 10 mg/kg): 279.3 ± 70.8 IU/L
weight of infarct myocardium ([2]; TSG 5 mg/kg oral): 5.98 ± 1.71 g
Weight of IM/Weight of LH ([2]; TSG 5 mg/kg oral): 10.8 ± 2.81
LDH ([2]; TSG 5 mg/kg oral): 159 ± 80.4 IU/L
ΔST ([2]; TSG 5 mg/kg oral, 5 min after administration): 0.70 ± 0.50 mV
ΔST ([2]; TSG 5 mg/kg oral, 15 min after administration): 0.71 ± 0.48 mV
ΔST ([2]; TSG 5 mg/kg oral, 30 min after administration): 0.73 ± 0.51 mV
ΔST ([2]; TSG 5 mg/kg oral, 60 min): 0.88 ± 0.54 mV
ΔST ([2]; TSG 5 mg/kg oral, 90 min after administration): 0.82 ± 0.49 mV
ΔST ([2]; TSG 5 mg/kg oral, 120 min after administration): 0.86 ± 0.52 mV
ΔST ([2]; TSG 5 mg/kg oral, Before administration): 0.66 ± 0.45 mV
weight of infarct myocardium ([2]; TSG 10 mg/kg oral): 3.17 ± 0.66 g
Weight of IM/Weight of LH ([2]; TSG 10 mg/kg oral): 6.61 ± 1.31
LDH ([2]; TSG 10 mg/kg oral): 140 IU/L
ΔST ([2]; TSG 10 mg/kg oral, 5 min after administration): 0.68 ± 0.51 mV
ΔST ([2]; TSG 10 mg/kg oral, 15 min after administration): 0.69 ± 0.52 mV
ΔST ([2]; TSG 10 mg/kg oral, 30 min after administration): 0.69 ± 0.45 mV
ΔST ([2]; TSG 10 mg/kg oral, 60 min): 0.70 ± 0.44 mV
ΔST ([2]; TSG 10 mg/kg oral, 90 min after administration): 0.75 ± 0.46 mV
ΔST ([2]; TSG 10 mg/kg oral, 120 min after administration): 0.81 ± 0.52 mV
ΔST ([2]; TSG 10 mg/kg oral, Before administration): 0.55 ± 0.40 mV
weight of infarct myocardium ([2]; TSG 20 mg/kg oral): 2.31 ± 0.70 g
Weight of IM/Weight of LH ([2]; TSG 20 mg/kg oral): 4.03 ± 0.61
LDH ([2]; TSG 20 mg/kg oral): 120 IU/L
effect on vasoconstriction of noadrenalin ([3]; 1.37 mM): no noticeable effect
effect on vasoconstriction of noadrenalin ([3]; 1.71 mM): antagonistic effect
effect on isolated carotid and pulmonary arteries ([3]; 3.28 mM): no noticeable effect
effect on isolated carotid and pulmonary arteries ([3]; 5.12 mM): may relax
intracellular calcium concentration in vascular smooth muscle (vascular smooth muscle): increase intracellular calcium concentration in vascular smooth muscle remarkably
